Assay results reported in PubChem BioAssay AID493040 (Abbott Labs, 2011).
The source made the active and inactive calls. The rule behind the calls is not given here.

Columns and labels:
Assay in all cases: PubChem AID 493040
[1] = molecular target: Cyclin-dependent kinase 2 (Homo sapiens) (UniProt P24941); conditions: kinase panel binding, pKi; CDK2
[2] = molecular target: Rho-associated protein kinase 2 (Homo sapiens) (UniProt O75116); conditions: kinase panel binding, pKi; ROCK2
[3] = molecular target: Serine/threonine-protein kinase Sgk2 (Homo sapiens) (UniProt Q9HBY8); conditions: kinase panel binding, pKi; SGK
Serine/threonine-protein kinase Sgk2 (Homo sapiens), sequence (Q9HBY8 whole entry, looked up): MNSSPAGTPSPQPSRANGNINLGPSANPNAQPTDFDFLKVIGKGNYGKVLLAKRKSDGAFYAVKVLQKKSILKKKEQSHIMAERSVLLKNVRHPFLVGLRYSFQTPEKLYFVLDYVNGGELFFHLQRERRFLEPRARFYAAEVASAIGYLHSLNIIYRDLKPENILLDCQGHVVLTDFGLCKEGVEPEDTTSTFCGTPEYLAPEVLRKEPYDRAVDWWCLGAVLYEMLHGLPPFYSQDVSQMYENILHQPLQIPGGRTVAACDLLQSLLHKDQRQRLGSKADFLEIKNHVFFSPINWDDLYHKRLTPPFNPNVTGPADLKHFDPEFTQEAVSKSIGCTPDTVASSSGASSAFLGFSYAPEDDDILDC

[4] = molecular target: Cyclin-dependent kinase 5 (Homo sapiens) (UniProt Q00535); conditions: kinase panel binding, pKi; CDK5
Cyclin-dependent kinase 5 (Homo sapiens), sequence (Q00535 whole entry, looked up): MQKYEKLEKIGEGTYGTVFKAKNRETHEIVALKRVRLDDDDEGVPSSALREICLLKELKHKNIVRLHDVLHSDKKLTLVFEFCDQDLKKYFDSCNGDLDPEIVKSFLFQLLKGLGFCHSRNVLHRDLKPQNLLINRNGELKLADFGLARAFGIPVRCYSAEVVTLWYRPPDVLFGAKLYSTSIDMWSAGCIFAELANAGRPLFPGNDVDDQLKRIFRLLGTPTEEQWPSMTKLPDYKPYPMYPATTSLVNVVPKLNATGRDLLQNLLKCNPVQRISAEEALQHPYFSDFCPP

[5] = molecular target: Mitogen-activated protein kinase 14 (Homo sapiens) (UniProt Q16539); conditions: kinase panel binding, pKi; MAPK14
Mitogen-activated protein kinase 14 (Homo sapiens), sequence (Q16539 whole entry, looked up): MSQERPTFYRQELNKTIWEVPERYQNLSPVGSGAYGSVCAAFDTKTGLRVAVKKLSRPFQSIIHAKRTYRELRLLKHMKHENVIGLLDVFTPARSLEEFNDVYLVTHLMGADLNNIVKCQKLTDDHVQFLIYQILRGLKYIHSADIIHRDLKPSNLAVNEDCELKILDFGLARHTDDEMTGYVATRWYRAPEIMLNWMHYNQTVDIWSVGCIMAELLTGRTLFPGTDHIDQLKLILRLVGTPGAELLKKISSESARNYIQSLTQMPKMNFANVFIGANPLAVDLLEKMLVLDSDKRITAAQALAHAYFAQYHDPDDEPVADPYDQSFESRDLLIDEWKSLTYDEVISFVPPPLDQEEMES

[6] = molecular target: Cell division cycle 7-related protein kinase (Homo sapiens) (UniProt O00311); conditions: kinase panel binding, pKi; CDC7
Cell division cycle 7-related protein kinase (Homo sapiens), sequence (O00311 whole entry, looked up): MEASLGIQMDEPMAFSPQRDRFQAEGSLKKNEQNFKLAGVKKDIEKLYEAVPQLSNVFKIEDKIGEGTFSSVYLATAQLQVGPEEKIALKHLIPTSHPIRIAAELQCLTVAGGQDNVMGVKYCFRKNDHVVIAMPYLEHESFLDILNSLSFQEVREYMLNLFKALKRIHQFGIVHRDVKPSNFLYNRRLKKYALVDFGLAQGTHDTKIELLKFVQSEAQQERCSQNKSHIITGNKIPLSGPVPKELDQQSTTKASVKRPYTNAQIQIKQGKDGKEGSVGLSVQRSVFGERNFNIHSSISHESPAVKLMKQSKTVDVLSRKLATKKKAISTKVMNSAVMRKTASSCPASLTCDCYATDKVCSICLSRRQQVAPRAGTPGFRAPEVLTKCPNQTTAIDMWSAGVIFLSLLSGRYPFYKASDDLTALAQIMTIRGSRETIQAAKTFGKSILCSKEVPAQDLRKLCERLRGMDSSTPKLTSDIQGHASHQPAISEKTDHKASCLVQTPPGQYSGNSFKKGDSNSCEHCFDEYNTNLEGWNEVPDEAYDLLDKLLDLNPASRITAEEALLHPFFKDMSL

Rho-associated protein kinase 2 (Homo sapiens), sequence (O75116 whole entry, looked up): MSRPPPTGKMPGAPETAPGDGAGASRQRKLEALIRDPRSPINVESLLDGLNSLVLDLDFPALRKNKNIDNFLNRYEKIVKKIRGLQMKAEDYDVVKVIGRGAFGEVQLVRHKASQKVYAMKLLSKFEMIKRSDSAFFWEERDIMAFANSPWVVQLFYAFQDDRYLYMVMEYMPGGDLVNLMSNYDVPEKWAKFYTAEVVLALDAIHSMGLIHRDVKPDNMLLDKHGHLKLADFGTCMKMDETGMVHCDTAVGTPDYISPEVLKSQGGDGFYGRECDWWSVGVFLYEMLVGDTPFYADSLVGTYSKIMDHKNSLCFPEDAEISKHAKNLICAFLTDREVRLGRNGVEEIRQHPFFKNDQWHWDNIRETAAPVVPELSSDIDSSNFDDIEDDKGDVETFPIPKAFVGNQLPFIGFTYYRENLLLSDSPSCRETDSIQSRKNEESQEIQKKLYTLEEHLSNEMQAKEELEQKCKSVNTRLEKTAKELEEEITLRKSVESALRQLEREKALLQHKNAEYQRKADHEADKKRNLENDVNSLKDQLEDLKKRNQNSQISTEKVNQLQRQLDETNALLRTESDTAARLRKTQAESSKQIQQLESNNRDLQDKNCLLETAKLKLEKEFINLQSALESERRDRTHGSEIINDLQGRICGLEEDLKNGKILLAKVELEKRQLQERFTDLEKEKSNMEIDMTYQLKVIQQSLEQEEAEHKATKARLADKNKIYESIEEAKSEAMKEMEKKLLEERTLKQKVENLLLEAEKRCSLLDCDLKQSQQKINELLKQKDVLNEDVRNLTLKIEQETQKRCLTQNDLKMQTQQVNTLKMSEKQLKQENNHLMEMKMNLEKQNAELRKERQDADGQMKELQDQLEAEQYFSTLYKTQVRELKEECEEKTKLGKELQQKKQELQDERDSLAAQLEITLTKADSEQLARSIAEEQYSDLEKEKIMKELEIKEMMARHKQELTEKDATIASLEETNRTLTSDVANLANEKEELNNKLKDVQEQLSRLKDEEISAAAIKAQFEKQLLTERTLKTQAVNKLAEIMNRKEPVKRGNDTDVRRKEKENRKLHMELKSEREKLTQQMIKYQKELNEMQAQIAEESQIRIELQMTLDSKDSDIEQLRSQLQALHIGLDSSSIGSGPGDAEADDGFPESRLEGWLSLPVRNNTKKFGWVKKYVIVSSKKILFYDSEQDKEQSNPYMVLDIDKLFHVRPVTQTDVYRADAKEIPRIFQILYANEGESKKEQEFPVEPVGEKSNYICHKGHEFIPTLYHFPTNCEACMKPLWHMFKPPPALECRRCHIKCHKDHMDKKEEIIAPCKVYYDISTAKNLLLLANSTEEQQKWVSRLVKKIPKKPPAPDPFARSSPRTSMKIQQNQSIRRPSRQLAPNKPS

Row | SMILES | Ki [1] [µM] | Ki [2] | also measured
1 | Cc1[nH]nc2ccc(-c3cncc(OCCNS(C)(=O)=O)c3)cc12 | 0.316 | 0.158 µM | –
2 | CCOC(=O)c1cn(-c2ccc(O)cc2C)c2cc(-c3ccncc3)ccc2c1=O | 3.98 | 0.0316 µM | Ki [3]: > 10 µM (inactive)
3 | COc1ccccc1C(=O)Nc1n[nH]c2ccc(-c3cn(Cc4ccccc4)nn3)cc12 | 0.251 | > 7.94 µM (inactive) | –
4 | CCn1c(-c2nonc2N)nc2cnc(Oc3cccc(NC(=O)c4ccc(OCCN5CCOCC5)cc4)c3)cc21 | 0.794 | – | Ki [3]: 0.2 µM
5 | Nc1n[nH]c2ccc(-c3nnn(Cc4ccccc4)c3C3CC3)cc12 | 0.0794 | 0.02 µM | –
6 | Oc1ccc(-c2nc(-c3ccc(F)cc3)c(-c3ccncc3)[nH]2)cc1 | – | > 3.98 µM (inactive) | Ki [3]: > 6.31 µM (inactive)
7 | O=C(O)c1ccccc1Nc1ncnc(Nc2ccc3cn[nH]c3c2)n1 | 0.316 | > 5.01 µM (inactive) | Ki [4]: 0.251 µM
8 | O=C1Nc2ccccc2Nc2cc(-c3ccncc3)ccc21 | 1 | 0.316 µM | –
9 | CC(C)(C)c1cc(NC(=O)Nc2cccc3ccccc23)n(-c2cccc(C(=O)N(CCN)CCO)c2)n1 | – | – | Ki [5]: 0.631 µM
10 | Fc1ccc2c(c1)-c1[nH]ncc1CS2 | 20 | – | –
11 | CN(C)c1cc(-c2ccncc2)cc2[nH]nc(N)c12 | 0.631 | 0.0794 µM | –
12 | CC(C)CC(NC(=O)c1cccc(-n2nc(C(C)(C)C)cc2NC(=O)Nc2cccc3ccccc23)c1)C(N)=O (centres undefined) | – | – | Ki [5]: 0.794 µM
13 | Cc1[nH]nc2ccc(-c3cncc(OCCN(C)S(C)(=O)=O)c3)cc12 | 0.501 | 0.1 µM | –
14 | O=[N+]([O-])c1cccc(-c2nnc3ccc(N4CCCCC4)nn23)c1 | 0.631 | > 7.94 µM (inactive) | –
15 | COc1ccc(C=C2SC(=Nc3ccccc3)NC2=O)cc1OC | – | – | Ki [3]: > 10 µM (inactive)
16 | Oc1cccc(-c2nc(N3CCOCC3)c3oc4ncccc4c3n2)c1 | – | – | Ki [3]: > 7.94 µM (inactive)
17 | FC(F)(F)c1ccccc1CNc1nccc(-c2c[nH]c3ncccc23)n1 | 0.00501 | – | –
18 | O=c1ncn2nc(Sc3ccc(F)cc3F)ccc2c1-c1c(Cl)cccc1Cl | – | – | Ki [3]: > 7.94 µM (inactive)
19 | c1ccc(Cn2nnc(-c3ccc4[nH]ncc4c3)c2-c2ccccc2)cc1 | 0.0631 | – | –
20 | Cc1ccccc1-c1c(-c2ccc3n[nH]c(C)c3c2)nnn1Cc1ccccc1 | 0.00398 | – | –
21 | c1ccc(Cn2cc(-c3ccc4[nH]nc(-c5cn(Cc6ccccc6)nn5)c4c3)nn2)cc1 | 0.00501 | 0.126 µM | –
22 | CCCn1c(=O)c2[nH]c(-c3cnn(Cc4cccc(C(F)(F)F)c4)c3)nc2n(CC)c1=O | 5.01 | – | –
23 | CC(C)(C)Oc1cc(-c2ccncc2)cc2[nH]nc(N)c12 | 0.126 | 0.0501 µM | –

Row | SMILES | Ki [1] [µM] | Ki [2] | also measured
24 | CCOC(=O)c1c(NC(=O)C2C(C)(C)C2(C)C)sc2cnccc12 | 1 | – | –
25 | c1cnc2[nH]cc(-c3ccnc(NCC4CCCCC4)n3)c2c1 | 0.00398 | 0.00631 µM | –
26 | CCOC(=O)c1c[nH]n2c(=O)cc(-c3ccncc3)nc12 | – | 2 µM | –
27 | Cc1cc(=O)n2[nH]cc(C(=O)NCc3ccccc3)c2n1 | – | 2.51 µM | –
28 | CCN(CCN(C)C)C(=O)c1cccc(-n2nc(C(C)(C)C)cc2NC(=O)Nc2cccc3ccccc23)c1 | – | – | Ki [5]: 0.794 µM
29 | O=C(Nc1ccc(CO)cc1)c1cnn2c(-c3ccccc3)ccnc12 | – | – | Ki [3]: > 10 µM (inactive)
30 | NC(=O)c1ccc(-c2ccnc(N)n2)cc1N1CCCCC1 | 1.26 | 1.58 µM | –
31 | NC(=O)c1cccc2[nH]c(-c3cccc(NCCN4CCCC4)n3)nc12 | – | – | Ki [3]: > 10 µM (inactive)
32 | O=C1Nc2ccccc2Nc2cc(-c3ccncc3Cl)ccc21 | 0.501 | 0.631 µM | –
33 | NC(=O)c1ccc(-c2ccncc2)cc1NCc1cccc(F)c1 | 3.16 | 5.01 µM | –
34 | CC(C)(CO)CCCNc1cc(-c2c[nH]c3ncccc23)cc(Cl)n1 | 0.1 | 0.01 µM | –
35 | COCCN(CCOC)c1cc(-c2c[nH]c3ncccc23)cc(Cl)n1 | 2 | 0.0398 µM | –
36 | CC(=O)n1ncc2cc(N)ccc21 | – | – | Ki [5]: 7.94 µM
37 | CS(=O)(=O)Nc1ccccc1-c1ccc2c(c1)Nc1ccccc1NC2=O | 6.31 | – | –
38 | Cc1c(C#N)c2nc3ccccc3n2c(=O)c1=CO | – | > 7.94 µM (inactive) | Ki [3]: > 10 µM (inactive)
39 | C=CCNc1cc(-c2c[nH]c3ncccc23)cc(Cl)n1 | 0.1 | 0.0126 µM | –
40 | CC(C)(C)c1cc(NC(=O)c2cc3ccccc3s2)n(-c2ccc(OCC(=O)O)cc2)n1 | – | – | Ki [5]: 2.51 µM
41 | CC(C)(C)c1cc(NC(=O)C(=O)c2cccc3ccccc23)n(-c2ccc(OCCC(N)=O)cc2)n1 | – | – | Ki [5]: 0.631 µM
42 | O=C1CN=C(c2cccc(Cl)c2)c2c(sc3c2CCCC3)N1 | 7.94 | – | –
43 | NC(=O)c1ccccc1Nc1nc(Nc2ccccc2)ncc1C(F)(F)F | – | 0.501 µM | –
44 | NC(=O)c1ccc(-c2nc(-c3ccc4c(c3)OCO4)c(-c3ccccn3)[nH]2)cc1 | – | > 3.98 µM (inactive) | –
45 | CN(C)c1ccc(-c2c(-c3ccc4[nH]nc(N)c4c3)nnn2Cc2ccccc2)cc1 | 0.126 | 0.02 µM | Ki [6]: 0.000398 µM
46 | O=c1cc(-c2cccc(F)c2)nc2c(-c3ccc(F)cc3)c[nH]n12 | – | > 7.94 µM (inactive) | –

Row | SMILES | Ki [1] [µM] | Ki [2] | also measured
47 | CCCCNc1cc(-c2ccncc2)cc2[nH]nc(N)c12 | 0.2 | 0.0631 µM | –
48 | Cc1cc(=O)[nH]c2n[nH]c(-c3cccc(C(F)(F)F)c3)c12 | – | – | Ki [5]: 0.398 µM
49 | O=C(O)c1ccccc1Nc1ccnc(NCc2cccc(O)c2)n1 | – | > 7.94 µM (inactive) | –
50 | O=C(Nc1ccccc1)Nc1nccs1 | 20 | – | –
51 | O=C1Nc2ccccc2Nc2cc(-c3ccncc3F)ccc21 | 0.398 | 0.126 µM | –
52 | CCCCNc1c(-c2ccc3[nH]ncc3c2)nc2ncccn12 | 0.398 | 0.0631 µM | –
53 | O=c1cc(-c2ccncc2)nc(NCc2cc(F)cc(F)c2)[nH]1 | 0.794 | 0.794 µM | –
54 | c1ccc(Cn2cc(-c3ccc4[nH]nc(-c5ccccc5)c4c3)nn2)cc1 | 0.1 | 0.0631 µM | –
55 | CC(C)(C)c1cc(NC(=O)C(=O)c2cccc3ccccc23)n(-c2ccc(OCC(=O)NCCO)cc2)n1 | – | – | Ki [5]: 0.631 µM
56 | CCCCCCCCCCCCOc1ccc(N=C(N)N)cc1N=C(N)N | 5.01 | 3.16 µM | Ki [3]: > 10 µM (inactive)
57 | Cc1cccc(CNc2cc(-c3c[nH]c4ncccc34)cc(Cl)n2)c1C | 0.2 | 0.0316 µM | –
58 | COCC(C)Nc1cc(-c2c[nH]c3ncccc23)cc(Cl)n1 (centres undefined) | 0.158 | 0.00794 µM | –
59 | Cn1cc(-c2ccccc2)c2nc(-c3ccncc3)cc(=O)n21 | – | 3.16 µM | –
60 | COc1cc2c(Oc3ccc4[nH]c(C)cc4c3F)ncnc2cc1OCCCN1CCCC1 | – | – | Ki [3]: > 10 µM (inactive)
61 | NC1CCCCC1Nc1nccc(Nc2ccccc2C(=O)O)n1 (centres undefined) | – | > 7.94 µM (inactive) | –
62 | CC(C)(C)c1cc(NC(=O)c2cc3ccccc3s2)n(-c2cccc(OCC(=O)O)c2)n1 | – | – | Ki [5]: 0.794 µM
63 | CN(c1ccccc1-c1ccc2c(c1)Nc1ccccc1NC2=O)S(C)(=O)=O | 2 | – | –
64 | CN(C)CCCOc1cc(-c2ccncc2)cc2[nH]nc(N)c12 | 3.16 | 0.251 µM | –
65 | CCn1c(=C(C#N)C(=O)O)sc(=CNc2ccccc2)c1=O | – | – | Ki [3]: 3.98 µM
66 | CNCCOc1cncc(-c2ccc3n[nH]c(C)c3c2)c1 | 0.501 | 0.02 µM | –
67 | Cc1ccc(Nc2nccc(Nc3ccccc3C(=O)O)n2)cc1F | 0.398 | > 7.94 µM (inactive) | –
68 | Fc1cccc(-c2c[nH]c3ncccc23)c1 | 1.26 | 0.316 µM | –
69 | c1ccc(-c2ncc3ccccn23)cc1 | – | – | Ki [5]: 50.1 µM

Row | SMILES | Ki [1] [µM] | Ki [2] | also measured
70 | CCCCOc1cc(-c2ccncc2)cc2[nH]nc(N)c12 | 1 | 0.126 µM | –
71 | NC(=O)c1ccc2c(ccn2-c2cccc(Cl)c2)c1 | – | 2.51 µM | –
72 | O=C(NCc1ccccc1)c1c[nH]n2c(=O)cc(-c3ccncc3)nc12 | 0.158 | > 7.94 µM (inactive) | –
73 | O=c1cc(-c2ccc(F)cc2)nc2c(-c3ccc(F)cc3)c[nH]n12 | – | > 7.94 µM (inactive) | –
74 | Cc1sc2[nH]c(=O)n3nc(-c4ccncc4)nc3c2c1C | – | 3.98 µM | –
75 | CCCCNc1cc(-c2c[nH]c3ncccc23)ncn1 | 0.2 | 0.02 µM | –
76 | Nc1ccc2cc(NCCc3ccccc3)cc(Nc3ncccn3)c2n1 | – | – | Ki [5]: 2.51 µM
77 | NC(=O)c1ccc(Nc2ncnc3[nH]cc(-c4ccccc4)c23)cc1 | 0.501 | 0.251 µM | –
78 | OCCCCNc1cc(-c2c[nH]c3ncccc23)cc(Cl)n1 | 0.126 | 0.0158 µM | –
79 | Cc1cc(=O)[nH]nc1-c1ccc(NC(=O)Nc2cc(C(F)(F)F)ccc2F)c(Cl)c1 | – | – | Ki [5]: 0.1 µM
80 | O=C1N=c2ccc(Br)cc2=C1c1sc(=S)[nH]c1O | – | – | Ki [3]: 2 µM
81 | NC(=O)c1ccc2nc(-c3ccc([N+](=O)[O-])o3)cn2c1 | – | – | Ki [5]: 3.16 µM
82 | CCNC(=O)c1[nH]nc(-c2cc(Cl)c(O)cc2O)c1-c1ccc(OC)cc1 | 6.31 | 2.51 µM | –
83 | Cc1cccc(CNc2cc(-c3c[nH]c4ncccc34)ncn2)c1 | 0.0398 | 0.0126 µM | –
84 | CN(Cc1ccccc1)c1cc(-c2c[nH]c3ncccc23)cc(Cl)n1 | 0.0316 | 0.02 µM | –
85 | OCCNc1cc(-c2c[nH]c3ncccc23)cc(Cl)n1 | 0.316 | 0.02 µM | –
86 | Nc1n[nH]c2ccc(-c3cc(Cc4ccccc4)no3)cc12 | 0.2 | 0.0251 µM | –
87 | CC(C)(O)CNc1cc(-c2c[nH]c3ncccc23)cc(Cl)n1 | 0.251 | 0.0158 µM | –
88 | COCCNc1cc(-c2c[nH]c3ncccc23)cc(Cl)n1 | 0.251 | 0.00501 µM | –
89 | O=S(=O)(Nc1ccccn1)c1ccc(N=Cc2c(O)[nH]c3ccc4ncsc4c23)cc1 | – | – | Ki [3]: 0.0158 µM
